# Reference: ChEMBL document CHEMBL1149966 (Bioorg Med Chem Lett, 1997)
# Where “and” joins values, the source holds several entries; their conditions need not be identical. Equal entries are not always repeated.
# Experiments:
# [1] = system: Human immunodeficiency virus 1; test: The activity against HIV was determined from patient number 337; assay type: functional, organism-based
# MT4 [2] = test: Inhibitory potency towards recombinant HIV-1 3B in MT-4 cell was evaluated in 0% human plasma; assay type: functional, cell-based
# MT4 [3] = test: Inhibitory potency towards recombinant HIV-1 3B in MT-4 cell using cytopathic effect as endpoint was evaluated in 0% human plasma; assay type: functional
# [4] = system: Human immunodeficiency virus 1; test: The activity against HIV was determined from patient number 313; assay type: functional, organism-based
# [5] = system: Human immunodeficiency virus 1; test: The activity against HIV mutant strain V82S was determined from patient number 337; assay type: functional, organism-based
# [6] = system: Human immunodeficiency virus 1; test: The activity against HIV was determined from patient number 304; assay type: functional, organism-based
# MT4 [7] = test: Inhibitory potency towards recombinant HIV-1 3B in MT-4 cell was evaluated in 50% human plasma; assay type: functional, cell-based
# Rattus norvegicus [8] = test: Terminal phase half-life was evaluated in vivo in rat at a dose of 5 mg/kg by intra venous administration; assay type: ADME, organism-based; set-up: dose 5 mg/kg; conditions: iv
# [9] = system: Human immunodeficiency virus 1; test: The activity against HIV was determined from patient number 302; assay type: functional, organism-based
# [10] = system: Human immunodeficiency virus 1; test: The activity against HIV was determined from patient number 129; assay type: functional, organism-based
# [11] = system: Human immunodeficiency virus 1; test: The activity against HIV mutant strain V82F was determined from patient number 313; assay type: functional, organism-based
# [12] = system: Human immunodeficiency virus 1; test: The activity against mutant HIV molecular clone V82A was determined; assay type: functional, organism-based
# [13] = system: Human immunodeficiency virus 1; test: The activity against mutant HIV molecular clone wt (pNL4-3) was determined; assay type: functional, organism-based
# [14] = system: Human immunodeficiency virus 1; test: The activity against mutant HIV molecular clone V82T was determined; assay type: functional, organism-based
# [15] = system: Human immunodeficiency virus 1; test: The activity against mutant HIV molecular clone V82F was determined; assay type: functional, organism-based
# [16] = system: Human immunodeficiency virus 1; test: The activity against HIV multiply mutated strain M36M/I,V82V/A was determined from patient number 304; assay type: functional, organism-based
# [17] = system: Human immunodeficiency virus 1; test: The activity against HIV mutant strain V82A was determined from patient number 302; assay type: functional, organism-based
# Rattus norvegicus [18] = test: Oral bioavailability in rat (dose 5 mg/kg); assay type: ADME, organism-based; conditions: in vivo
# Rattus norvegicus [19] = test: Maximum plasma concentration was evaluated in vivo in rat at a dose of 5 mg/kg by oral administration; assay type: ADME, organism-based; set-up: dose 5 mg/kg, route oral
# [20] = system: Human immunodeficiency virus 1; test: The activity against multiply mutated strain M36I,I54V,A71V,V82T was determined from patient number 129; assay type: functional, organism-based
SMILES,EC50 [1],EC50 (MT4 [2]),CCIC50 (MT4 [3]),EC50 [4],EC50 [5],EC50 [6],EC50 (MT4 [7]),T1/2 (Rattus norvegicus [8]),EC50 [9],EC50 [10],EC50 [11],EC50 [12],EC50 [13],EC50 [14],EC50 [15],EC50 [16],EC50 [17],F (Rattus norvegicus [18]),Cmax (Rattus norvegicus [19]),EC50 [20]
CC(C)c1nc(CN(C)C(=O)N[C@@H](C(=O)N[C@@H](Cc2ccccc2)C[C@H](O)[C@H](Cc2ccccc2)NC(=O)OCc2cncs2)C(C)C)cs1,0.019 µM,0.12 µM,27 µM,0.035 µM,0.022 µM,0.035 µM,0.88 µM,1.8 h and 1.41 h and 0.63 h,0.046 µM,0.005 µM,0.043 µM,0.121 µM,0.137 µM,0.352 µM,0.276 µM,0.059 µM,0.043 µM,–,–,–
CC(C)c1nc(CN(C)C(=O)N[C@H](C(=O)N[C@@H](Cc2ccccc2)C[C@H](O)[C@H](Cc2ccccc2)NC(=O)OCc2cncs2)C(C)C)cs1 [RITONAVIR],0.035 µM,0.09 µM,35 µM,0.035 µM,0.143 µM,0.019 µM,1.07 µM,–,–,0.005 µM,0.123 µM,0.23 µM,0.055 µM,0.316 µM,0.308 µM,0.054 µM,0.032 µM,70.7% and 37.4% and 29.9%,1.36 µg/mL and 3.58 µg/mL,0.065 µM
